Reference: the NIST ThermoML archive (doi:10.1016/j.jct.2009.11.014)

Settings: Liquid; for mass density: vibrating tube; for viscosity: Stony Brook Scientific falling needle HPHTV-100 viscometer

CCCCCCCC[n+]1ccn(C)c1.F[B-](F)(F)F [1-methyl-3-octylimidazolium tetrafluoroborate]
Settings	mass density [kg/m3]	viscosity [mPa·s]
283.15 K, 100 kPa	1114.58	–
283.15 K, 2000 kPa	1115.49	–
283.15 K, 4000 kPa	1116.46	–
283.15 K, 6000 kPa	1117.44	–
283.15 K, 8000 kPa	1118.4	–
283.15 K, 10000 kPa	1119.31	–
283.15 K, 12000 kPa	1120.25	–
283.15 K, 14000 kPa	1121.19	–
283.15 K, 20000 kPa	1123.96	–
283.15 K, 30000 kPa	1128.45	–
283.15 K, 40000 kPa	1132.79	–
283.15 K, 50000 kPa	1136.9	–
283.15 K, 60000 kPa	1140.94	–
283.53 K, 140 kPa	–	774.7
283.53 K, 680 kPa	–	781
283.55 K, 1680 kPa	–	793.9
283.55 K, 7960 kPa	–	878.4
283.6 K, 11830 kPa	–	908.6
283.6 K, 14620 kPa	–	950.1
283.61 K, 10090 kPa	–	894.7
283.63 K, 4380 kPa	–	815.4
283.65 K, 4110 kPa	–	811.4
283.67 K, 5540 kPa	–	834.1
283.72 K, 2750 kPa	–	803.7
288.15 K, 100 kPa	1111.12	–
288.15 K, 2000 kPa	1112.07	–
288.15 K, 4000 kPa	1113.07	–
288.15 K, 6000 kPa	1114.04	–
288.15 K, 8000 kPa	1115.03	–
288.15 K, 10000 kPa	1116.03	–
288.15 K, 12000 kPa	1116.94	–
288.15 K, 14000 kPa	1117.9	–
288.15 K, 20000 kPa	1120.72	–
288.15 K, 30000 kPa	1125.21	–
288.15 K, 40000 kPa	1129.56	–
288.15 K, 50000 kPa	1133.75	–
288.15 K, 60000 kPa	1137.81	–
293.15 K, 100 kPa	1107.68	–
293.15 K, 2000 kPa	1108.68	–
293.15 K, 4000 kPa	1109.68	–
293.15 K, 6000 kPa	1110.66	–
293.15 K, 8000 kPa	1111.66	–
293.15 K, 10000 kPa	1112.63	–
293.15 K, 12000 kPa	1113.61	–
293.15 K, 14000 kPa	1114.55	–
293.15 K, 20000 kPa	1117.38	–
293.15 K, 30000 kPa	1121.95	–
293.15 K, 40000 kPa	1126.31	–
293.15 K, 50000 kPa	1130.56	–
293.15 K, 60000 kPa	1134.64	–
293.65 K, 130 kPa	–	403.7
293.65 K, 2010 kPa	–	409.7
293.65 K, 4090 kPa	–	423
293.65 K, 4310 kPa	–	418.7
293.65 K, 6110 kPa	–	433.3
293.65 K, 6580 kPa	–	434.4
293.65 K, 8080 kPa	–	447.6
293.65 K, 10200 kPa	–	458.3
293.65 K, 12100 kPa	–	466.6
293.65 K, 14310 kPa	–	478.8
293.65 K, 14330 kPa	–	483.6
298.15 K, 100 kPa	1104.31	–
298.15 K, 2000 kPa	1105.26	–
298.15 K, 4000 kPa	1106.28	–
298.15 K, 6000 kPa	1107.31	–
298.15 K, 8000 kPa	1108.29	–
298.15 K, 10000 kPa	1109.29	–
298.15 K, 12000 kPa	1110.27	–
298.15 K, 14000 kPa	1111.29	–
298.15 K, 20000 kPa	1114.12	–
298.15 K, 30000 kPa	1118.74	–
298.15 K, 40000 kPa	1123.16	–
298.15 K, 50000 kPa	1127.47	–
298.15 K, 60000 kPa	1131.57	–
303.15 K, 100 kPa	1100.92	–
303.15 K, 2000 kPa	1101.88	–
303.15 K, 4000 kPa	1102.9	–
303.15 K, 6000 kPa	1103.93	–
303.15 K, 8000 kPa	1104.97	–
303.15 K, 10000 kPa	1105.98	–
303.15 K, 12000 kPa	1107.03	–
303.15 K, 14000 kPa	1107.96	–
303.15 K, 20000 kPa	1110.85	–
303.15 K, 30000 kPa	1115.56	–
303.15 K, 40000 kPa	1120.01	–
303.15 K, 50000 kPa	1124.34	–
303.15 K, 60000 kPa	1128.52	–
303.74 K, 13240 kPa	–	258.3
303.8 K, 2750 kPa	–	227.3
303.82 K, 14800 kPa	–	261.8
303.85 K, 4160 kPa	–	230.6
303.85 K, 5600 kPa	–	233.6
303.91 K, 8710 kPa	–	241.6
303.95 K, 11220 kPa	–	250.7
303.96 K, 160 kPa	–	219.1
304.01 K, 2040 kPa	–	222.9
304.03 K, 1190 kPa	–	221.6
304.05 K, 6140 kPa	–	232.1
304.05 K, 7390 kPa	–	238.6
308.15 K, 100 kPa	1097.49	–
308.15 K, 2000 kPa	1098.5	–
308.15 K, 4000 kPa	1099.56	–
308.15 K, 6000 kPa	1100.61	–
308.15 K, 8000 kPa	1101.64	–
308.15 K, 10000 kPa	1102.66	–
308.15 K, 12000 kPa	1103.66	–
308.15 K, 14000 kPa	1104.66	–
308.15 K, 20000 kPa	1107.61	–
308.15 K, 30000 kPa	1112.34	–
308.15 K, 40000 kPa	1116.89	–
308.15 K, 50000 kPa	1121.29	–
308.15 K, 60000 kPa	1125.53	–
312.95 K, 650 kPa	–	137.4
312.95 K, 1600 kPa	–	139.3
313.05 K, 130 kPa	–	137.3
313.05 K, 2670 kPa	–	141.1
313.05 K, 4260 kPa	–	142.8
313.05 K, 6130 kPa	–	145.7
313.05 K, 8180 kPa	–	150.2
313.05 K, 10130 kPa	–	152.7
313.05 K, 12200 kPa	–	157.1
313.05 K, 14260 kPa	–	161
313.15 K, 100 kPa	1094.13	–
313.15 K, 2000 kPa	1095.13	–
313.15 K, 4000 kPa	1096.26	–
313.15 K, 6000 kPa	1097.28	–
313.15 K, 8000 kPa	1098.3	–
313.15 K, 10000 kPa	1099.33	–
313.15 K, 12000 kPa	1100.39	–
313.15 K, 14000 kPa	1101.41	–
313.15 K, 20000 kPa	1104.39	–
313.15 K, 30000 kPa	1109.19	–
313.15 K, 40000 kPa	1113.81	–
313.15 K, 50000 kPa	1118.25	–
313.15 K, 60000 kPa	1122.52	–
318.15 K, 100 kPa	1090.78	–
318.15 K, 2000 kPa	1091.83	–
318.15 K, 4000 kPa	1092.91	–
318.15 K, 6000 kPa	1094	–
318.15 K, 8000 kPa	1095.03	–
318.15 K, 10000 kPa	1096.1	–
318.15 K, 12000 kPa	1097.15	–
318.15 K, 14000 kPa	1098.18	–
318.15 K, 20000 kPa	1101.2	–
318.15 K, 30000 kPa	1106.06	–
318.15 K, 40000 kPa	1110.72	–
318.15 K, 50000 kPa	1115.21	–
318.15 K, 60000 kPa	1119.54	–
323.15 K, 100 kPa	1087.45	–
323.15 K, 2000 kPa	1088.5	–
323.15 K, 4000 kPa	1089.6	–
323.15 K, 6000 kPa	1090.68	–
323.15 K, 8000 kPa	1091.76	–
323.15 K, 10000 kPa	1092.8	–
323.15 K, 12000 kPa	1093.87	–
323.15 K, 14000 kPa	1094.9	–
323.15 K, 20000 kPa	1097.97	–
323.15 K, 30000 kPa	1102.88	–
323.15 K, 40000 kPa	1107.6	–
323.15 K, 50000 kPa	1112.12	–
323.15 K, 60000 kPa	1116.48	–
323.43 K, 140 kPa	–	83.7
323.46 K, 680 kPa	–	84.3
323.55 K, 1710 kPa	–	85
323.56 K, 13080 kPa	–	96.3
323.58 K, 14330 kPa	–	97.4
323.63 K, 9640 kPa	–	92.7
323.65 K, 130 kPa	–	83.6
323.65 K, 2760 kPa	–	85.9
323.65 K, 6190 kPa	–	88.2
323.65 K, 11060 kPa	–	93.2
323.68 K, 4240 kPa	–	86.8
323.73 K, 8190 kPa	–	90.2
323.75 K, 10400 kPa	–	92.1
323.75 K, 12340 kPa	–	94
